# “And” between values parts separate entries of the source, which are not always exact repeats. Equal values may be shown once.
# What was measured:
# [1] = test system: PC3-PIP (PSMA positive) and PC-3 tumors (PSMA negative); assay: Biodistribution of 177Lu labeled compounds 4 and 7 in tumor bearing nude mice; type: in vivo, CD-1 male nude mice
# Protocol: (§1) ^177Lu labeling: To 10 μg ligand (1 mg/mL DMSO) were added 15 μL of 2.0 N NaOAc, 400 μL 0.05 N HCl, and 20 μL ^177Lu-solution (780 μCi (Capintec setting 450 (reading×10)). The reaction was heated with a heating block at 95° C. for 1 hour in a 3 mL closed vial. After cooling, the sample was analyzed by HPLC (HPLC: Eclipse XDB-C18 150×4.6 mm, gradient, 1 mL/min; A: 0.1% TFA in water; B: 0.1% TFA in ACN: 0-4 min A/B 85/15%; 4-11 min: from 85/15 to 30/70%; 11-14 min: from 30/70% to 85/15%). Radiochemical purity of [^177Lu]4 (FIG. 2) and [^177Lu]7 was >98% and injected doses were stable at 48 hr after formulation.
# (§2) For iv injection 150 μL of labeled solution was diluted with saline to 3.75mL. Mice were injected with 150 μL of formulated dose. Injected radioactivity was 100 μCi and PSMA ligand amount was constant at 0.72 nmole/mouse.
# Biodistribution of [^68Ga]4, [^177Lu]4 and [^177Lu]7 was determined in nude mice bearing PIP PC3 (PSMA positive) and PC3 (PSMA negative) tumors on the left and right shoulder, respectively, over a period of 192 h (Table 3a, 3b and 3c). […] The uptake in PC3 tumors (PSMA negative) of both ligands, [^177Lu]4 and [^177Lu]7, was clearly much lower than those of PC-3 PIP tumors (PSMA positive).
# [2] = test system: PSMA-positive cell line, PIP PC3; assay: In vitro cell uptake, PIP PC3 cells; type: cell-based
# Protocol: To determine the cell uptakes of the [^177Lu] labelled ligands, 5×10^5 cells/well were grown in 12-well plates in 1 mL of medium for 48 h. The cells were washed twice with PBS, and 900 μL fresh media were added. […] All samples were prepared in triplicate. Following the incubation at 37° C., cells were washed twice to remove unbound activity and afterwards lysed in 1 mL of 0.5 M NaOH. Activity was measured in a gamma counter. Aliquots of the solution added to the cells were also measured for the calculation of the cellular uptake as % ID.
# [3] = Stability of injected doses after formulation; type: physicochemical; conditions: at 48 hr after formulation
# Protocol: ^68Ga labeling: To 15 nmole ligand 4 (1 mg/mL DMSO) were added 20 μL of 2.0 N NaOAc, 500 μL ^68Ga-solution (2.25 mCi). The reaction was heated in a heating block at 90° C. for 10 minutes in a 3 mL closed vial. After cooling, the sample was analyzed by HPLC (HPLC: Eclise XDB C18 150×4.6 mm, gradient, 2 mL/min; A: 0.1% TFA in water; B: 0.1% TFA in ACN: 0-2 min 100% A; 2-4 min: from 0% to 100% B; 4-9 min: 100% B; 9-10 min: from 100% to 0% B). Radiochemical purity of [^68Ga]4 was >99% RCP (FIG. 1) and injected doses were stable at 2 hr after formulation.
# as §1, §2
# [4] = test system: PSMA-negative cell line, PC3; assay: In vitro cell uptake, PC3 cells; type: cell-based; conditions: PC3 (do not express PSMA), 60 min
# Protocol: To determine the cell uptakes of the [^177Lu] labelled ligands, 5×10^5 cells/well were grown in 12-well plates in 1 mL of medium for 48 h. The cells were washed twice with PBS, and 900 μL fresh media were added. Radiolabelled ligand was added and the PSMA-inhibitor (2-PMPA) was applied in a final concentration of 10 μM to determine unspecific binding. All samples were prepared in triplicate. Following the incubation at 37° C., cells were washed twice to remove unbound activity and afterwards lysed in 1 mL of 0.5 M NaOH. Activity was measured in a gamma counter. Aliquots of the solution added to the cells were also measured for the calculation of the cellular uptake as % ID.
smiles,measurement,setting,value
O=C(O)CCC(C(=O)O)N1CCN(CC(=O)O)CCN(C(CCC(=O)NCC(=O)N[C@@H](Cc2ccc(OCC(=O)N[C@@H](Cc3ccccc3)C(=O)NCCCC[C@H](NC(=O)N[C@@H](CCC(=O)O)C(=O)O)C(=O)O)cc2)C(=O)O)C(=O)O)CCN(CC(=O)O)CC1.[177Lu] (stereo partly shown) [[^177Lu]4],Biodistribution: Blood,[1]; 1 hr,0.27 ± 0.07 % dose/g
same,Biodistribution: Bone,[1]; 1 hr,0.15 ± 0.05 % dose/g
same,Biodistribution: Brain,[1]; 1 hr,0.02 ± 0.01 % dose/g
same,Biodistribution: Heart,[1]; 1 hr,0.17 ± 0.03 % dose/g
same,Biodistribution: Intestine,[1]; 1 hr,0.19 ± 0.08 % dose/g
same,Biodistribution: Kidney,[1]; 1 hr,45.59 ± 20.51 % dose/g
same,Biodistribution: Liver,[1]; 1 hr,0.18 ± 0.05 % dose/g
same,Biodistribution: Lung,[1]; 1 hr,0.63 ± 0.13 % dose/g
same,Biodistribution: Muscle,[1]; 1 hr,0.18 ± 0.06 % dose/g
same,Biodistribution: PC3 tumor,[1]; 1 hr,1.13 ± 0.61 % dose/g
same,Biodistribution: PIP PC3 tumor,[1]; 1 hr,15.27 ± 2.93 % dose/g
same,Biodistribution: Pancreas,[1]; 1 hr,0.43 ± 0.20 % dose/g
same,Biodistribution: Skin,[1]; 1 hr,0.35 ± 0.07 % dose/g
same,Biodistribution: Spleen,[1]; 1 hr,1.42 ± 1.44 % dose/g
same,Biodistribution: Stomach,[1]; 1 hr,0.20 ± 0.10 % dose/g
same,Biodistribution: Blood,[1]; 4 hrs,0.02 % dose/g and 0.02 ± 0.01 % dose/g
same,Biodistribution: Bone,[1]; 4 hrs,0.05 ± 0.01 % dose/g
same,Biodistribution: Brain,[1]; 4 hrs,0.01 ± 0.00 % dose/g
same,Biodistribution: Heart,[1]; 4 hrs,0.11 ± 0.07 % dose/g
same,Biodistribution: Intestine,[1]; 4 hrs,0.21 ± 0.11 % dose/g
same,Biodistribution: Kidney,[1]; 4 hrs,21.17 ± 5.08 % dose/g
same,Biodistribution: Liver,[1]; 4 hrs,0.09 ± 0.03 % dose/g
same,Biodistribution: Lung,[1]; 4 hrs,0.20 ± 0.05 % dose/g
same,Biodistribution: Muscle,[1]; 4 hrs,0.05 ± 0.01 % dose/g
same,Biodistribution: PC3 tumor,[1]; 4 hrs,0.28 ± 0.08 % dose/g
same,Biodistribution: PIP PC3 tumor,[1]; 4 hrs,22.38±3.50 % dose/g
same,Biodistribution: Pancreas,[1]; 4 hrs,0.18 ± 0.10 % dose/g
same,Biodistribution: Skin,[1]; 4 hrs,0.12 ± 0.05 % dose/g
same,Biodistribution: Spleen,[1]; 4 hrs,0.53 ± 0.26 % dose/g
same,Biodistribution: Stomach,[1]; 4 hrs,0.12 ± 0.02 % dose/g
same,Biodistribution: Blood,[1]; 24 hrs (1 day),0.002 ± 0.000 % dose/g
same,Biodistribution: Bone,[1]; 24 hrs (1 day),0.022 ± 0.010 % dose/g
same,Biodistribution: Brain,[1]; 24 hrs (1 day),0.006 ± 0.001 % dose/g
same,Biodistribution: Heart,[1]; 24 hrs (1 day),0.011 ± 0.002 % dose/g
same,Biodistribution: Intestine,[1]; 24 hrs (1 day),0.132 ± 0.114 % dose/g
same,Biodistribution: Kidney,[1]; 24 hrs (1 day),2.291 ± 0.761 % dose/g
same,Biodistribution: Liver,[1]; 24 hrs (1 day),0.036 ± 0.003 % dose/g
same,Biodistribution: Lung,[1]; 24 hrs (1 day),0.024 ± 0.005 % dose/g
same,Biodistribution: Muscle,[1]; 24 hrs (1 day),0.012 ± 0.003 % dose/g
same,Biodistribution: PC3 tumor,[1]; 24 hrs (1 day),0.071 ± 0.010 % dose/g
same,Biodistribution: PIP PC3 tumor,[1]; 24 hrs (1 day),11.29 ± 2.62 % dose/g
same,Biodistribution: Pancreas,[1]; 24 hrs (1 day),0.015 ± 0.004 % dose/g
same,Biodistribution: Skin,[1]; 24 hrs (1 day),0.059 ± 0.029 % dose/g
same,Biodistribution: Spleen,[1]; 24 hrs (1 day),0.047 ± 0.005 % dose/g
same,Biodistribution: Stomach,[1]; 24 hrs (1 day),0.076 ± 0.026 % dose/g
same,Biodistribution: Blood,[1]; 48 hrs (2 days),0.003 ± 0.002 % dose/g
same,Biodistribution: Bone,[1]; 48 hrs (2 days),0.030 ± 0.010 % dose/g
same,Biodistribution: Brain,[1]; 48 hrs (2 days),0.006 ± 0.002 % dose/g
same,Biodistribution: Heart,[1]; 48 hrs (2 days),0.010 ± 0.000 % dose/g
same,Biodistribution: Intestine,[1]; 48 hrs (2 days),0.059 ± 0.036 % dose/g
same,Biodistribution: Kidney,[1]; 48 hrs (2 days),2.359 ± 1.504 % dose/g
same,Biodistribution: Liver,[1]; 48 hrs (2 days),0.069 ± 0.067 % dose/g
same,Biodistribution: Lung,[1]; 48 hrs (2 days),0.032 ± 0.028 % dose/g
same,Biodistribution: Muscle,[1]; 48 hrs (2 days),0.006 ± 0.003 % dose/g
same,Biodistribution: PC3 tumor,[1]; 48 hrs (2 days),0.080 ± 0.034 % dose/g
same,Biodistribution: PIP PC3 tumor,[1]; 48 hrs (2 days),13.98 ± 6.41 % dose/g
same,Biodistribution: Pancreas,[1]; 48 hrs (2 days),0.011 ± 0.001 % dose/g
same,Biodistribution: Skin,[1]; 48 hrs (2 days),0.034 ± 0.015 % dose/g
same,Biodistribution: Spleen,[1]; 48 hrs (2 days),0.133 ± 0.173 % dose/g
same,Biodistribution: Stomach,[1]; 48 hrs (2 days),0.032 ± 0.014 % dose/g
same,Biodistribution: Blood,[1]; 96 hrs (4 days),0.001 ± 0.000 % dose/g
same,Biodistribution: Bone,[1]; 96 hrs (4 days),0.043 ± 0.038 % dose/g
same,Biodistribution: Brain,[1]; 96 hrs (4 days),0.006 ± 0.001 % dose/g
same,Biodistribution: Heart,[1]; 96 hrs (4 days),0.011 ± 0.006 % dose/g
same,Biodistribution: Intestine,[1]; 96 hrs (4 days),0.040 ± 0.028 % dose/g
same,Biodistribution: Kidney,[1]; 96 hrs (4 days),0.623 ± 0.072 % dose/g
same,Biodistribution: Liver,[1]; 96 hrs (4 days),0.031 ± 0.003 % dose/g
same,Biodistribution: Lung,[1]; 96 hrs (4 days),0.020 ± 0.009 % dose/g
same,Biodistribution: Muscle,[1]; 96 hrs (4 days),0.006 ± 0.002 % dose/g
same,Biodistribution: PC3 tumor,[1]; 96 hrs (4 days),0.047 ± 0.012 % dose/g
same,Biodistribution: PIP PC3 tumor,[1]; 96 hrs (4 days),6.90 ± 1.87 % dose/g
same,Biodistribution: Pancreas,[1]; 96 hrs (4 days),0.022 ± 0.011 % dose/g
same,Biodistribution: Skin,[1]; 96 hrs (4 days),0.032 ± 0.019 % dose/g
same,Biodistribution: Spleen,[1]; 96 hrs (4 days),0.033 ± 0.015 % dose/g
same,Biodistribution: Stomach,[1]; 96 hrs (4 days),0.030 ± 0.002 % dose/g
same,Biodistribution: Blood,[1]; 192 hrs (8 days),0.001 ± 0.000 % dose/g
same,Biodistribution: Bone,[1]; 192 hrs (8 days),0.042 ± 0.035 % dose/g
same,Biodistribution: Brain,[1]; 192 hrs (8 days),0.003 ± 0.001 % dose/g
same,Biodistribution: Heart,[1]; 192 hrs (8 days),0.005 ± 0.000 % dose/g
same,Biodistribution: Intestine,[1]; 192 hrs (8 days),0.162 ± 0.087 % dose/g
same,Biodistribution: Kidney,[1]; 192 hrs (8 days),0.177 ± 0.009 % dose/g
same,Biodistribution: Liver,[1]; 192 hrs (8 days),0.021 ± 0.005 % dose/g
same,Biodistribution: Lung,[1]; 192 hrs (8 days),0.006 ± 0.003 % dose/g
same,Biodistribution: Muscle,[1]; 192 hrs (8 days),0.003 ± 0.003 % dose/g
same,Biodistribution: PC3 tumor,[1]; 192 hrs (8 days),0.022 ± 0.002 % dose/g
same,Biodistribution: PIP PC3 tumor,[1]; 192 hrs (8 days),4.21 ± 1.03 % dose/g
same,Biodistribution: Pancreas,[1]; 192 hrs (8 days),0.003 ± 0.001 % dose/g
same,Biodistribution: Skin,[1]; 192 hrs (8 days),0.011 ± 0.003 % dose/g
same,Biodistribution: Spleen,[1]; 192 hrs (8 days),0.032 ± 0.010 % dose/g
same,Biodistribution: Stomach,[1]; 192 hrs (8 days),0.209 ± 0.131 % dose/g
same,Uptake in PC3 tumors (PSMA negative) versus PC-3 PIP tumors (PSMA positive),"[1]; mouse, in vivo",much lower
same,Uptakes compared with reference ligand [177Lu]PSMA-617,[2]; PIP PC3,much higher uptakes
same,In vitro cell uptake,"[2]; PIP PC3, 5 min",4.0 % ID per 5 × 10^5 cells
same,In vitro cell uptake,"[2]; PIP PC3, 15 min",7.5 % ID per 5 × 10^5 cells
same,In vitro cell uptake,"[2]; PIP PC3, 30 min",11.2 % ID per 5 × 10^5 cells
same,In vitro cell uptake,"[2]; PIP PC3, 60 min",13.4 % ID per 5 × 10^5 cells
same,In vitro cell uptake,"[2]; PIP PC3, 60 min, with PSMA inhibitor (2-PMPA, 2 uM)",0.9 % ID per 5 × 10^5 cells
same,In vitro cell uptake,"[2]; PIP PC3, 120 min",14.9 % ID per 5 × 10^5 cells
same,Stability of injected doses,[3],stable
same,In vitro cell uptake,[4],0.4 % ID per 5 × 10^5 cells
